Patent US5750530A, “Pharmaceutical diketopiperazine compounds” (Xenova Limited, priority 1994, dated 1998)
pIC50: −log10 of the molar value. Where a name gives a salt, the structure may show the parent alone.

Molecular target: PAI-1 (Homo sapiens, UniProt P05121)
Assay: biochemical
Assay type: biochemical
Settings: for pIC50: PAI chromogenic substrate assay
Procedure: The present compounds have been tested in a PAI functional assay. In this assay, a compound is incubated with PAI-1 prior to addition to the tPA assay system. Inhibition of PAI-1 results in the production of plasmin from plasminogen. In turn, plasmin cleaves the chromogenic substrate S2251 (Kabi Vitrum) producing pNA (p-nitroaniline) which is detected spectrophotometrically at 405 nm (K. Nilsson et al, Fibrinolysis (1987) 1, 163-168).
The present compounds were tested in a PAI chromogenic substrate assay. In the assay (K. Nilsson, Fibrinolysis (1987) 1, 163-168) each compound was incubated with PAI-1 prior to addition to the tPA assay system. […] In turn, the plasmin cleaved the chromogenic substrate S2251 (Kabi-Vitrum) producing pNA (p-nitroaniline) which was detected spectrophotometrically at 405 nm.
The degrees of inhibition observed in the chromogenic substrate assay at various concentrations, or the IC50 values, for each compound are presented in Table 1.

Chain of PAI-1 (P05121 24-402): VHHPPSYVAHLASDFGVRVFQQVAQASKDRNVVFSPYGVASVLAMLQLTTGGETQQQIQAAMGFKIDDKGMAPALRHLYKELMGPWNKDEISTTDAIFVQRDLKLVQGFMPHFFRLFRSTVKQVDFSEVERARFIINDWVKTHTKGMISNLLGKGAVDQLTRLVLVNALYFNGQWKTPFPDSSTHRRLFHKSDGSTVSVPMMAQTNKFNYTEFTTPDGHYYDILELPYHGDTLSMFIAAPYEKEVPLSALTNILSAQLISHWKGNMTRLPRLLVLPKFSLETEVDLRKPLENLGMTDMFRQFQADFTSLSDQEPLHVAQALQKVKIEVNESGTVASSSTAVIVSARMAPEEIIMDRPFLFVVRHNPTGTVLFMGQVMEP

Row | % Inhibition (5 μm) [%] | % Inhibition (20 μm) [%] | pIC50 | Compound
1 | 8 | 41 | 4.70 | CN(C)CCSc1ccc(/C=c2\[nH]c(=O)/c(=C/c3ccc(Cl)cc3)[nH]c2=O)cc1 [Compound 5437, (3Z,6Z)-3-(4-Chlorobenzylidene)-6-(4-(2-dimethylaminoethylthio)benzylidene)-2,5-piperazinedione]
2 | 1 | 2 | – | CN(C)CCSc1ccc(/C=c2\[nH]c(=O)/c(=C/c3ccccn3)[nH]c2=O)s1 [Compound 5471.HCl, (3Z,6Z)-6-(5-(2-Dimethylaminoethylthio)-2-thienyl)methylene-3-(2-pyridylmethylene)-2,5-piperazinedione]
3 | 6 | 56 | 4.87 | CN(C)CCSc1ccc(/C=c2\[nH]c(=O)/c(=C/c3ccc(Br)cc3)[nH]c2=O)s1 [Compound 5489, (3Z,6Z)-6-(4-Bromobenzylidene)-3-(5-(2-dimethylaminoethylthio)-2-thienyl)methylene-2,5-piperazinedione]
4 | 56 | 47 | 5.66 | CN(C)CCSc1ccc(/C=c2\[nH]c(=O)/c(=C/c3cccc(Br)c3)[nH]c2=O)cc1 [Compound 5425.HCl, (3Z,6Z)-3-(3-Bromobenzylidene)-6-(4-(2-dimethylaminoethylthio)benzylidene)-2,5-piperazinedione]
5 | – | – | 5.52 | CN(C)CCSc1ccc(/C=c2\[nH]c(=O)/c(=C/c3cccc(Cl)c3)[nH]c2=O)cc1 [Compound 5292, (3Z,6Z)-3-(3-Chlorobenzylidene)-6-(4-(2-dimethylaminoethylthio)benzylidene)-2,5-piperazinedione]
6 | 42 | 76 | 5.59 | CN(C)CCSc1ccc(/C=c2\[nH]c(=O)/c(=C/c3ccc(Cl)c(Cl)c3)[nH]c2=O)cc1 [Compound 5465.HCl, (3Z,6Z)-3-(3,4-Dichlorobenzylidene)-6-(4-(2-dimethylaminoethylthio)benzylidene)-2,5-piperazinedione]
7 | 31 | 78 | 4.90 | Cc1ccc(/C=c2\[nH]c(=O)/c(=C/c3ccc(SCCN(C)C)s3)[nH]c2=O)cc1 [Compound 5460.HCl, (3Z,6Z)-3-(5-(2-Dimethylaminoethylthio)-2-thienyl)methylene-6-(4-methylbenzylidene)-2,5-piperazinedione]
8 | 12 | 59 | 4.94 | CN(C)CCSc1ccc(/C=c2\[nH]c(=O)/c(=C/c3cn(C)c4ccccc34)[nH]c2=O)cc1 [Compound 5497.HCl, (3Z,6Z)-6-(4-(2-Dimethylaminoethylthio)benzylidene)-3-(1-methyl-3-indolyl)methylene-2,5-piperazinedione]
9 | 52 | 76 | – | CN(C)CCSc1ccc(/C=c2\[nH]c(=O)/c(=C/c3ccc(Br)cc3)[nH]c2=O)cc1 [Compound 5480.HCl, (3Z,6Z)-3-(4-Bromobenzylidene)-6-(4-(2-dimethylaminoethylthio)benzylidene)-2,5-piperazinedione]
10 | 18 | 44 | 4.78 | CN(C)CCSc1ccc(/C=c2\[nH]c(=O)/c(=C/c3ccc(Cl)cc3)[nH]c2=O)cc1 [Compound 5437.HCl, (3Z,6Z)-3-(4-Chlorobenzylidene)-6-(4-(2-dimethylaminoethylthio)benzylidene)-2,5-piperazinedione]
11 | 0 | 1 | – | CN(C)CCSc1ccc(/C=c2\[nH]c(=O)/c(=C/c3ccccn3)[nH]c2=O)s1 [Compound 5471, (3Z,6Z)-6-(5-(2-Dimethylaminoethylthio)-2-thienyl)methylene-3-(2-pyridylmethylene)-2,5-piperazinedione]
12 | 21 | 38 | – | CN(C)CCSc1ccc(/C=c2\[nH]c(=O)/c(=C/c3cccc(C#N)c3)[nH]c2=O)cc1 [Compound 5476, (3Z,6Z)-3-(3-Cyanobenzylidene)-6-(4-(2-dimethylaminoethylthio)benzylidene)-2,5-piperazinedione]
